Assay results: patent US20040214803A1, “Use of vitamin d3 analogue for the treatment of autoimmune diabetes” (priority 2001, published 2004)

Columns and labels:
IL-12p75 = assay: LPS-induced IL-12 production in vivo (serum ELISA); design: species or system mouse
Method: Lymphokine production was induced in 8 week-old female NOD mice by i.p. injection of 400 μg/mouse Salmonella abortus equi LPS (Sigma). Compound A was administered 72, 48, 24, and 1 h prior to LPS. Blood samples were collected 3 h post LPS injection and serum cytokines measured by ELISA.
Cytokines were quantified by two-sites ELISA. IFN-γ was determined using paired mAb from PharMingen (San Diego, Calif.). For capture, the mAb was AN-18.17.24. Samples were titrated and incubated overnight at 4° C. To detect bound IFN-γ plates were then incubated with biotinylated XMG1.2 mAb. […] The plates were washed again and incubated with the developing substrate p-nitrophenylphosphate disodium (Sigma) in diethanolamine buffer (pH 9.6; 100 μl/well). The reaction was stopped by adding 50 μl/well NaOH 3N, and absorbance was read at 405 nm. ELISA for IL-12p75 was performed as described (Gately, M. K., et al., Current Protocols Immunol. 1995, 3, 15:6.16.11-16.16.15). Cytokines were quantified from two to three titration points using standard curves generated by purified recombinant mouse cytokines and results expressed as cytokine concentration in ng or pg/ml. Detection limits were 15 pg/ml for both cytokines. […]
FIG. 3. […] IFN-γ, IL-12p75 and serum calcium levels were quantified 3 h post LPS injection. […] The P values were calculated by Mann-Whitney U test (* indicates P<0.05 vs. vehicle-treated NOD mice).

NOD mice = assay: Type 1 DM development in NOD mice (blood glucose monitoring); format: in vivo, mouse; conditions: NOD female mice, 0.03 μg/Kg per os
Method: The non-obese (NOD)/Lt mice used for the experiments were purchased from Charles River Laboratories (Calco, Italy). All mice were kept under specific pathogen-free conditions. Glucose levels in the tail venous blood were quantified using a EUROFlash (Lifescan, Issy les Moulineaux, France). A diagnosis of diabetes was after two sequential glucose measurements higher than 200 mg/dl.
1,25-dihydroxy-16,23Z-diene-26,27-hexafluoro-19-nor vitamin D3, was dissolved in ethanol (1 mg/ml) and then diluted in miglyol 812. NOD/Lt. The mice were dosed orally with vehicle (miglyol 812) alone or vehicle containing Compound A (0,03 μg/Kg body weight) 5×/week from 8 to 12 or from 8 to 16 weeks of age.
NOD female mice were treated […] with Compound A (0.03 μg/Kg body weight per os) or vehicle from 8 to 12 or 16 weeks of age and glycemia levels were monitored until 38 weeks of age. […] About 90% of vehicle-treated controls were diabetic by 38 weeks of age compared to only 50% of mice treated with Compound A from 8 to 12 weeks of age. A longer treatment, from 8 to 16 weeks of age, afforded higher protection, and only 16% of NOD mice developed type 1 DM.
FIG. 1. (page 1/9) Compound A administration to 8-week-old NOD mice inhibits type 1 DM development. NOD mice were treated 5×/week with vehicle (open circles) or with 0.03 μg/Kg Compound A p.o. (filled circles) from 8 to 16 weeks of age, or from 8 to 12 weeks of age (filled squares). Type 1 DM development was monitored twice weekly by measurement of blood glucose levels. The P values were calculated by Mann-Whitney U test.

CD4+ T cells = assay: Flow cytometric analysis of surface molecules on CD4+ cells from treated NOD mice; format: in vivo, mouse
Method: Single-cell suspensions of pancreas-infiltrating, spleen or lymph node cells were incubated with anti-CD4 mAb-coated Microbeads (Miltenyi Biotec) and applied onto Mini-MACS columns (Miltenyi Biotec). Stainings were performed in the presence of 100 μg/ml mouse IgG using the following mAbs, all from PharMingen: CyChrome-labeled Streptavidin, FITC-labeled anti-CD4 (L3T4), PE-labeled anti-CD45RB (16A), PE-labeled anti-CD62L (MEL-14), PE-labeled anti-CD38 (rat IgG2a), FITC-labeled anti-CD69 (H1.2F3), and biotinylated anti-CD25 (7D4). Cells were analyzed with a FACScan flow cytometer equipped with CellQuest software (Becton Dickinson, Mountain View, Calif.).
Therefore, we analyzed the frequency of CD4^+ CD25^+ cells in 1,25-dihydroxy-16,23Z-diene-26,27-hexafluoro-19-nor vitamin D3-treated NOD mice. No difference was found in the percentage of splenic CD4^+ cells expressing CD25, CD38, CD69, CD62L and CD45RB in 20 week-old Compound A or vehicle-treated and untreated 8 week-old NOD mice (FIG. 6A).
FIG. 6. (page 6/9) Compound A treatment enhances the frequency of CD4^+ CD25^+ cells. Positively selected CD4^+ T cells were stained with mAbs specific for the indicated surface molecules and analyzed by flow cytometry. Acquisition was performed on CD4^+ cells. Bars represent the percent of spleen and lymph node CD4^+ T cells expressing the indicated surface molecules from untreated 8 week-old (□) or 20 week-old NOD mice treated 5×/week from 8 to 16 weeks of age with vehicle ( ? ) or with 0.03 μg/Kg Compound A (▪). Data are presented as mean ±SE of three separate experiments. The P values were calculated by Mann-Whitney U test (* indicates P<0.05 vs. 8 week-old NOD mice).

C[C@H](C/C=C\C(O)(C(F)(F)F)C(F)(F)F)C1=CC[C@H]2/C(=C/C=C3C[C@@H](O)C[C@H](O)C3)CCC[C@]12C [Compound A, 1,25-dihydroxy-16,23Z-diene-26,27-hexafluoro-19-nor vitamin D3]
LPS-induced IL-12p75 production (IL-12p75; 0.03 μg/Kg per os 72, 48, 24, 1 h before LPS, serum 3 h post LPS): inhibited significantly | potency in inhibiting LPS-induced IL-12p75 and IFN-γ production relative to 1,25(OH)2D3 (IL-12p75; higher than 1,25(OH)2D3 (literature comparison)): about 100 fold | incidence of disease compared to controls (NOD mice; from 8 to 12 or 16 weeks of age): significantly lower | diabetic by 38 weeks of age (NOD mice; treated from 8 to 12 weeks of age, vehicle controls about 90%): 50% | developed type 1 DM (by 38 weeks of age) (NOD mice; treated from 8 to 16 weeks of age, vehicle controls about 90%): 16% | percentage of splenic CD4+ cells expressing CD25, CD38, CD69, CD62L and CD45RB (CD4+ T cells; 20 week-old mice, vs vehicle-treated and untreated 8 week-old): No difference | percentage of CD45RBhigh (CD4+ T cells; pancreatic lymph node CD4+ cells, 8 week-old 75.9±0.5%, vehicle 74.2±1.6): 65.1±0.3% | percentage of CD4+ CD25+ (CD4+ T cells; pancreatic lymph node cells, 8 week-old 11.6±0.1%, vehicle 13.0±0.1): 20.1±0.1% | percentage of CD4+ CD38+ (CD4+ T cells; pancreatic lymph node cells, 8 week-old 11.8±0.1%, vehicle 10.6±1.0): 25.2±0.2% | percentage of CD45RBlow CD4+ cells (CD4+ T cells; pancreatic lymph node cells, 8 week-old 12.65±0.43%, vehicle 34.8±0.01): 24.1±0.22% | double positive CD25+ CD38+ CD4+ cells (CD4+ T cells; pancreatic lymph node, 8 week-old 8%, vehicle 7%): 17%
